{
  "source": "patent US20090137844A1",
  "about": "“Crystallization process” (Fermion Oy, priority 2005, published 2009)",
  "assay_type_in_all_cases": "physicochemical",
  "key": {"[1]": {"assay": "Volumetric particle size distribution by laser diffraction (Coulter LS230)", "details": "for Particle size distribution (laser diffraction) LDP 10 / Particle size distribution (laser diffraction) LDP 50 / Particle size distribution (laser diffraction) LDP 90: procedure of Example 1", "protocol": "Particle size distribution is analyzed visually using light microscope or by laser diffraction using the following method: Saturated 2-Propanol: To 250 ml of 2-propanol is added approx 1 g of tamsulosin HCl powder and sonicated at room temperature about 30 min. The mixture is let stand overnight, hereafter it is filtered through […] membrane filter. Sample Preparation About 30 mg of tamsulosin HCl is weighed in a 25 ml decanter. 2-4 drops of saturated 2-propanol is added to the sample and stirred with a glass rod. After that 4 ml of saturated 2-propanol is added and the sample is kept in ultra sound for 30 seconds before measuring volumetric particle size distribution using Coulter LS230, Laser Diffraction Particle Size Analyzer."}, "[2]": {"assay": "Crystal particle size by light microscope (visually observed)", "details": "for Size of particle (light microscope), 90% of crystals below: procedure of Example 1", "protocol": "Particle size distribution is analyzed visually using light microscope or by laser diffraction using the following method: In table 1 below there are the results of experiments using different addition temperatures. Procedure is the same as above."}, "[3]": {"assay": "Solubility in alcoholic solvents"}, "[4]": {"details": "Example 2: 15% HCl added at 40° C., cooled to 20° C."}, "[5]": {"details": "Example 3: Example 2 repeated, HCl addition temperature 20° C."}},
  "note": "Where a name gives a salt, the structure may show the parent alone.",
  "data": [
    {"smiles": "CCOc1ccccc1OCCNC(C)Cc1ccc(OC)c(S(N)(=O)=O)c1", "note": "(centres unmarked) [tamsulosin hydrochloride, 5-[2-[[2-(2-ethoxyphenoxy)ethyl]amino]propyl]-2-methoxybenzene-sulfonamide]", "values": [
      {"measurement": "Crystal size distribution (laser diffraction) LDP 10", "setting": "[1]; [4]", "result": 5, "unit": "μm"},
      {"measurement": "Crystal size distribution (laser diffraction) LDP 50", "setting": "[1]; [4]", "result": 20, "unit": "μm"},
      {"measurement": "Crystal size distribution (laser diffraction) LDP 90", "setting": "[1]; [4]", "result": 36, "unit": "μm"},
      {"measurement": "Crystal size distribution (laser diffraction) LDP 10", "setting": "[1]; [5]", "result": 3, "unit": "μm"},
      {"measurement": "Crystal size distribution (laser diffraction) LDP 50", "setting": "[1]; [5]", "result": 14, "unit": "μm"},
      {"measurement": "Crystal size distribution (laser diffraction) LDP 90", "setting": "[1]; [5]", "result": 29, "unit": "μm"},
      {"measurement": "Particle size distribution (laser diffraction) LDP 10", "setting": "[1]; HCl added at 0° C.", "result": "LDP 10 = 1 μm"},
      {"measurement": "Particle size distribution (laser diffraction) LDP 50", "setting": "[1]; HCl added at 0° C.", "result": "LDP 50 = 3 μm"},
      {"measurement": "Particle size distribution (laser diffraction) LDP 90", "setting": "[1]; HCl added at 0° C.", "result": "LDP 90 = 12 μm"},
      {"measurement": "Particle size distribution (laser diffraction) LDP 10", "setting": "[1]; HCl added at 10° C.", "result": "LDP 10 = 1 μm"},
      {"measurement": "Particle size distribution (laser diffraction) LDP 50", "setting": "[1]; HCl added at 10° C.", "result": "LDP 50 = 5 μm"},
      {"measurement": "Particle size distribution (laser diffraction) LDP 90", "setting": "[1]; HCl added at 10° C.", "result": "LDP 90 = 10 μm"},
      {"measurement": "Particle size distribution (laser diffraction) LDP 10", "setting": "[1]; HCl added at 20° C.", "result": "LDP 10 = 2 μm"},
      {"measurement": "Particle size distribution (laser diffraction) LDP 50", "setting": "[1]; HCl added at 20° C.", "result": "LDP 50 = 7 μm"},
      {"measurement": "Particle size distribution (laser diffraction) LDP 90", "setting": "[1]; HCl added at 20° C.", "result": "LDP 90 = 17 μm"},
      {"measurement": "Particle size distribution (laser diffraction) LDP 10", "setting": "[1]; HCl added at 30° C.", "result": "LDP 10 = 4 μm"},
      {"measurement": "Particle size distribution (laser diffraction) LDP 50", "setting": "[1]; HCl added at 30° C.", "result": "LDP 50 = 15 μm"},
      {"measurement": "Particle size distribution (laser diffraction) LDP 90", "setting": "[1]; HCl added at 30° C.", "result": "LDP 90 = 29 μm"},
      {"measurement": "Particle size distribution (laser diffraction) LDP 10", "setting": "[1]; HCl added at 40° C.", "result": "LDP 10 = 9 μm"},
      {"measurement": "Particle size distribution (laser diffraction) LDP 50", "setting": "[1]; HCl added at 40° C.", "result": "LDP 50 = 29 μm"},
      {"measurement": "Particle size distribution (laser diffraction) LDP 90", "setting": "[1]; HCl added at 40° C.", "result": "LDP 90 = 55 μm"},
      {"measurement": "Size below which 90% of the crystals are (laser diffraction)", "setting": "[1]; addition temperature about 20° C.", "result": "below 20 micrometers"},
      {"measurement": "Size below which 90% of the crystals are (laser diffraction)", "setting": "[1]; addition temperature about 40° C.", "result": "below 60 micrometers"},
      {"measurement": "Size of particle (light microscope), 90% of crystals below", "setting": "[2]; HCl added at 0° C.", "result": 90, "unit": "% < 3 μm"},
      {"measurement": "Size of particle (light microscope), 90% of crystals below", "setting": "[2]; HCl added at 10° C.", "result": 90, "unit": "% < 5 μm"},
      {"measurement": "Size of particle (light microscope), 90% of crystals below", "setting": "[2]; HCl added at 20° C.", "result": 90, "unit": "% < 10 μm"},
      {"measurement": "Size of particle (light microscope), 90% of crystals below", "setting": "[2]; HCl added at 30° C.", "result": 90, "unit": "% < 15 μm"},
      {"measurement": "Size of particle (light microscope), 90% of crystals below", "setting": "[2]; HCl added at 40° C.", "result": 90, "unit": "% < 30 μm"},
      {"measurement": "Size of particle (light microscope), 90% of crystals below", "setting": "[2]; HCl added at 80° C.", "result": 90, "unit": "% < 250 μm"},
      {"measurement": "Size below which 90% of the crystals are (light microscope)", "setting": "[2]; hydrochloride added at e.g. 80° C.", "result": "below 250 micrometers"},
      {"measurement": "Size below which 90% of the crystals are (light microscope)", "setting": "[2]; hydrochloride added below about 30° C.", "result": "below 15 micrometers"}
    ]},
    {"smiles": "CCOc1ccccc1OCCNC(C)Cc1ccc(OC)c(S(N)(=O)=O)c1", "note": "(centres unmarked) [tamsulosin, 5-[2-[[2-(2-ethoxyphenoxy)ethyl]amino]propyl]-2-methoxybenzene-sulfonamide]", "values": [
      {"measurement": "Solubility", "setting": "[3]", "result": "poorly soluble"}
    ]}
  ]
}
